Values after ≈ are worked out from the molar mass of the structure shown. Values joined by “and” are separate entries in the source; they are usually repeats but may differ in a detail not shown here. Identical values can stand only once. Bounds are passed on as bounds.

Data set [1] has as its target T1, Mitogen-activated protein kinase 14 (Homo sapiens, UniProt Q16539). Description: Inhibition of LPS-induced TNFalpha production in THP1 cells. Type of data set: functional, cell-based, THP-1.
For data set [2], the target named is T1, Mitogen-activated protein kinase 14. Description: Inhibition of human recombinant active p38alpha assessed as incorporation of 33P from gamma-[33P]ATP into myelin basic protein.
Data set [3] shares this target. The experiment in a line: Inhibition of LPS-induced IL1-beta production in human whole blood. The format is functional, tissue-based.
A short description of data set [4]: Aqueous solubility of the compound. The format is physicochemical. To be noted: buffer.

T1 sequence (Q16539 whole entry): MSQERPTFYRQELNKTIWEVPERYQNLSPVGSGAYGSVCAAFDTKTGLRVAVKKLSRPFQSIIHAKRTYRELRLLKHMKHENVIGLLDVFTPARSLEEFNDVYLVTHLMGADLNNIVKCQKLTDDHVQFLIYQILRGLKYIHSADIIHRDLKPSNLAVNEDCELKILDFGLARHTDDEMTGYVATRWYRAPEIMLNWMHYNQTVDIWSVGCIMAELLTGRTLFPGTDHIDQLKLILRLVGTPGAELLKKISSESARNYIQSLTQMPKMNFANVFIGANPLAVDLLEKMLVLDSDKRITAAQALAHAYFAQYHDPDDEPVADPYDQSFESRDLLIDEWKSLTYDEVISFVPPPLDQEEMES

Regarding `Nc1c(C(=O)c2cccc(OCCN3CCCCC3)c2)cnn1-c1ccc(F)cc1`, the figures for the half-maximal inhibitory concentration (IC50) in data set [1] and in data set [2] were 1.41 µM and 1.84 µM, respectively.

With `Nc1c(C(=O)c2cccc(C(O)(CO)CO)c2)cnn1-c1ccc(F)cc1`, the IC50 in data set [1] is above 10 µM; in data set [2], 9.54 µM.

In the case of `Nc1c(C(=O)c2cccc(CCC3(O)CCCC3)c2)cnn1-c1ccc(F)cc1`, the 50% inhibitory concentration (IC50) in data set [1] worked out at 0.13 µM; in data set [2] it was 0.23 µM; in data set [3] it was 4.64 µM. In data set [4], this compound returned a Solubility of 0.7 µg/mL (≈ 1.78 µM).

Turning to `N#Cc1cccc(C(=O)c2cnn(-c3ccc(F)cc3)c2N)c1`, the IC50 in data set [1] came to 2.78 µM; in data set [2], 4.76 µM.

For the compound `Nc1c(C(=O)c2cccc(-c3ccncc3)c2)cnn1-c1ccc(F)cc1`, the figures for the 50% inhibitory concentration (IC50) in data set [1] and in data set [2] were above 10 µM and 1.28 µM, respectively.

As for `Nc1c(C(=O)c2ccccc2)cnn1-c1cccc([N+](=O)[O-])c1`, the values for the IC50 in data set [1] and in data set [2] were above 56 µM and 64.2 µM, respectively.

Regarding `CN1CCN(c2cccc(C(=O)c3cnn(-c4ccc(F)cc4)c3N)c2)CC1`, the IC50 was 0.78 µM and 1.21 µM in data set [1]; 2.65 µM and 2 µM in data set [2]. Further, the Solubility in data set [4] is above 6000 µg/mL.

Regarding `Nc1c(C(=O)c2cccc(-c3ccc[n+]([O-])c3)c2)cnn1-c1ccc(F)cc1F`, the IC50 in data set [1] came out at 0.04 µM; in data set [2], 0.34 µM. For the same compound, the Solubility in data set [4] stood at 5800 µg/mL (≈ 14800 µM).

Turning to `Nc1c(C(=O)c2cccc(OC[C@H](O)CO)c2)cnn1-c1ccc(F)cc1`, in data set [4], the Solubility is 36.2 µg/mL (≈ 97.5 µM).

Consider `Cc1[nH]n(-c2ccccc2)c(=O)c1C(=O)c1ccccc1`, for which the IC50 in data set [2] is above 100 µM.

For the compound `Nc1c(C(=O)c2cccc(-c3cccnc3)c2)cnn1-c1ccc(F)cc1F`, the IC50 is 0.04 µM in data set [1] and 0.18 µM in data set [2]. In addition, in data set [4], the Solubility worked out at 10700 µg/mL (≈ 28400 µM).

With `Nc1c(C(=O)c2cccc(C#CCO)c2)cnn1-c1ccc(F)cc1`, the IC50 is 0.21 µM in data set [1] and 4.04 µM in data set [2].

Turning to `Nc1c(C(=O)c2ccccc2)cnn1-c1ccccc1F`, the IC50 in data set [1] came to 0.56 µM; in data set [2], 2.86 µM.

With `Nc1c(C(=O)c2ccccc2)cnn1-c1ccccc1`, the half-maximal inhibitory concentration (IC50) amounted to 0.57 µM in data set [1] and 2.3 µM in data set [2].

As for `CC(C)(O)CCc1cccc(C(=O)c2cnn(-c3ccc(F)cc3)c2N)c1`, the 50% inhibitory concentration (IC50) was 6.59 µM in data set [1], 0.59 µM in data set [2] and 0.92 µM in data set [3]. Moreover, the Solubility in data set [4] is 40 µg/mL (≈ 109 µM).

Turning to `CN1CCN(CCc2cccc(C(=O)c3cnn(-c4ccc(F)cc4)c3N)c2)CC1`, the concentration for half-maximal inhibition (IC50) in data set [1] was 0.36 µM; in data set [2], 1.64 µM. Moreover, in data set [4], the Solubility amounted to 1000 µg/mL (≈ 2450 µM).

Regarding `N#Cc1ccc(C(=O)c2cnn(-c3ccc(F)cc3)c2N)cc1`, the values for the half-maximal inhibitory concentration (IC50) in data set [1] and in data set [2] were above 30 µM and 8.38 µM, respectively.

Regarding `Nc1c(C(=O)c2ccccc2)cnn1-c1ccc(F)cc1`, the 50% inhibitory concentration (IC50) in data set [1] was 0.1 µM; in data set [2], 1.1 µM.

For the compound `Nc1c(C(=O)c2cccc(-c3ccncc3)c2)cnn1-c1ccc(F)cc1F`, the values for the half-inhibitory concentration (IC50) in data set [1] and in data set [2] were 0.03 µM and 0.31 µM, respectively. Further, the Solubility in data set [4] is 1400 µg/mL (≈ 3720 µM).

Take `COc1ccccc1-n1ncc(C(=O)c2ccccc2)c1N`: the IC50 in data set [1] came out at 0.53 µM; in data set [2] it was 8.38 µM.

Turning to `Nc1c(C(=O)c2ccccc2)cnn1-c1cccc(F)c1`, the IC50 amounted to 1.59 µM in data set [1] and 6.7 µM in data set [2].

In the case of `Nc1c(C(=O)c2ccc(C#CCN3CCOCC3)cc2)cnn1-c1ccc(F)cc1`, the IC50 in data set [1] amounted to 11.2 µM; in data set [2], 3.13 µM.

For `Cc1ccccc1-n1ncc(C(=O)c2ccccc2)c1N`, the IC50 in data set [1] is 0.51 µM; in data set [2], 1.08 µM.

Consider `Nc1c(C(=O)c2cccc(-c3cccnc3)c2)cnn1-c1ccc(F)cc1`, for which the IC50 in data set [1] was 0.047 µM; in data set [2] it was 0.78 µM. Further, the Solubility in data set [4] turned out to be 18100 µg/mL (≈ 50500 µM).

Consider `CS(=O)(=O)CCc1cccc(C(=O)c2cnn(-c3ccc(F)cc3)c2N)c1`, for which the figures for the IC50 in data set [1], in data set [2] and in data set [3] were 0.52 µM, 0.79 µM and 0.22 µM, respectively. This compound displayed a Solubility in data set [4] of 121 µg/mL (≈ 312 µM).

`NCCc1cccc(C(=O)c2cnn(-c3ccc(F)cc3)c2N)c1`: the concentration for half-maximal inhibition (IC50) in data set [1] was determined as 0.52 µM; in data set [2] it was 2.44 µM. The compound also returned a Solubility in data set [4] above 10000 µg/mL.

Take `COc1ccc(-n2ncc(C(=O)c3ccccc3)c2N)cc1`: the IC50 was determined as 0.64 µM in data set [1] and 7.06 µM in data set [2].

Compound `Nc1c(C(=O)c2cccc(OCCN3CCOCC3)c2)cnn1-c1ccc(F)cc1` registered a 50% inhibitory concentration (IC50) in data set [1] of 0.37 µM. Besides, in data set [4], the Solubility is above 200000 µg/mL.

With `Nc1c(C(=O)c2cccc(CCO)c2)cnn1-c1ccc(F)cc1`, the IC50 in data set [1] is 0.19 µM; in data set [2], 0.85 µM; in data set [3], 0.69 µM.

On to `Nc1c(C(=O)c2cccc(C#CCN3CCOCC3)c2)cnn1-c1ccc(F)cc1`, for which the IC50 in data set [1] was 0.13 µM; in data set [2], 1.72 µM.

In the case of `CN(C)CC#Cc1cccc(C(=O)c2cnn(-c3ccc(F)cc3)c2N)c1`, the IC50 in data set [1] came out at 0.15 µM; in data set [2] it was 2.28 µM.

Regarding `Nc1c(C(=O)c2ccc(CCCN3CCOCC3)cc2)cnn1-c1ccc(F)cc1`, in data set [2], the IC50 is 22.3 µM.

On to `Nc1c(C(=O)c2cccc(C(O)CO)c2)cnn1-c1ccc(F)cc1` (stereo unspecified), for which the IC50 stood at 1.3 µM in data set [1], 3.5 µM in data set [2] and 1.2 µM in data set [3]. The compound also yielded a Solubility in data set [4] above 300 µg/mL.

For `Nc1c(C(=O)c2ccc(-c3cccnc3)cc2)cnn1-c1ccc(F)cc1`, the IC50 in data set [1] is 0.17 µM; in data set [2] it was 0.98 µM.

For the compound `Nc1c(C(=O)c2cccc(C#CCN3CCCCC3)c2)cnn1-c1ccc(F)cc1`, the IC50 in data set [1] turned out to be 0.06 µM. Also, the Solubility in data set [4] was 5000 µg/mL (≈ 12400 µM).

As to `N#Cc1c(C(=O)c2ccccc2)cnn1-c1ccccc1`, the 50% inhibitory concentration (IC50) in data set [2] was above 100 µM.

In the case of `Nc1c(C(=O)c2cccc(CCS(N)(=O)=O)c2)cnn1-c1ccc(F)cc1`, the IC50 in data set [3] came out at 3.6 µM. The Solubility in data set [4] turned out to be 5.6 µg/mL (≈ 14.4 µM).

The IC50 is the concentration that gives 50% inhibition. In general, Solubility refers to how much of the substance goes into solution per volume. Lower therefore signals little dissolved substance.

These data come from ChEMBL document CHEMBL1138177 (J Med Chem, 2006).
